Measurements reported in patent publication US20210087232A1, “D-ENANTIOMERIC PEPTIDES FOR ANTI-INFLAMMATORY TREATMENT OF AMYOTROPIC LATERAL SCLEROSIS (ALS) AND OTHER DISEASES DRIVEN BY NEURO-INFLAMMATION” (FORSCHUNGSZENTRUM JUELICH GMBH, priority 2018, published 2021).
Where no end group is shown, it is not given here. [ ]: non-standard residue; d: D form.

System: transgenic ALS mice (tg G93R SOD1 mice)
Assay: Treatment studies in transgenic ALS mice: behavioral and motor tests (open field, SHIRPA, pole, hind-leg grip strength, rotarod, hind-leg spread) and histological analyses
Format: in vivo
Settings: two treatment studies
Description: To analyze the anti-inflammatory effect of RD2RD2 as a potential therapeutic for treating ALS, two treatment studies were carried out in transgenic ALS mice (tg G93R SOD1 mice).

Substance: ptlhthnrrrrrptlhthnrrrrr ([dP][dT][dL][dH][dT][dH][dN][dR][dR][dR][dR][dR][dP][dT][dL][dH][dT][dH][dN][dR][dR][dR][dR][dR]) [RD2RD2]
- disease onset (behavioral and motor tests): delays disease onset
- disease progression (behavioral and motor tests): slows disease progression
- inflammatory reactions (histological analyses): reduces inflammatory reactions
